In patent US20250249006A1, “TREATMENT” (Verona Pharma PLC, priority 2024, published 2025):

Tests used:
[1] = system: patients aged 40-80 years with moderate to severe COPD; assay: Clinical studies, ensifentrine vs placebo: COPD symptom responders (E-RS −2 units or TDI +1 unit) in patients with low FEV1 response; type: in vivo; settings: for Ensifentrine vs. Placebo Odds Ratio, E-RS (−2 Unit) or TDI (+1 Unit) Responders / Odds in favor of a response, E-RS (−2 Unit) or TDI (+1 Unit) Responders / Ensifentrine vs. Placebo Odds Ratio, TDI (+1 Unit) or E-RS (−2 Unit) Responders / Odds in favor of a response, TDI (+1 Unit) or E-RS (−2 Unit) Responders: logistic regression; for Ensifentrine vs. Placebo Odds Ratio, E-RS (−2 Unit) or TDI (+1 Unit) Responders / Odds in favor of a response, E-RS (−2 Unit) or TDI (+1 Unit) Responders / % E-RS (−2 Unit) or TDI (+1 Unit) Responders / % responders, E-RS (−2 Units) or TDI (+1 Unit) Responders / Ensifentrine v placebo Odds Ratio, E-RS (−2 Units) or TDI (+1 Unit) Responders / Odds in favour of response, E-RS (−2 Units) or TDI (+1 Unit) Responders / Ensifentrine vs. Placebo Odds Ratio, TDI (+1 Unit) or E-RS (−2 Unit) Responders / Odds in favor of a response, TDI (+1 Unit) or E-RS (−2 Unit) Responders / % TDI (+1 Unit) or E-RS (−2 Unit) Responders: pooled mITT; for % E-RS (−2 Unit) or TDI (+1 Unit) Responders / % responders, E-RS (−2 Units) or TDI (+1 Unit) Responders / % TDI (+1 Unit) or E-RS (−2 Unit) Responders: 3 mg BID nebuliser; for % responders, E-RS (−2 Units) or TDI (+1 Unit) Responders / Ensifentrine v placebo Odds Ratio, E-RS (−2 Units) or TDI (+1 Unit) Responders / Odds in favour of response, E-RS (−2 Units) or TDI (+1 Unit) Responders: improvement in morning trough FEV1 less than 40 mL (table line prints <60 mL); for proportion of patients with a clinically important improvement in symptoms: over 24 weeks
Method: (§1) Clinical studies were conducted to determine the efficacy of ensifentrine in treating COPD compared with placebo. Ensifentrine was administered by nebuliser at a dose of 3 mg twice daily (BID) for 24 weeks. The studies were multi-centre, randomized, double-blind, parallel-group, placebo-controlled trials.
(§2) The study population included patients aged 40-80 years with moderate to severe COPD (FEV1 30%-70% p.n., FEV1/forced vital capacity (FVC) ratio<0.7, with mMRC≥2). The randomization stratified (a) the use of stable background maintenance LAMA or LABA therapy use (approx. 50%. yes or no) and (b) cigarette smoking (current or former). Inhaled corticosteroid (ICS) maintenance therapy was permitted in up to 20% of patients under certain provisions.
The primary endpoint was change from baseline in average FEV1 area under the curve AUC0-12h post-dose at week 12. Also assessed were COPD symptoms and quality of life (QoL) in patients showing lower responses in terms of lung function, and in particular patients with: (i) improvement in average FEV1 AUC0-12h of less than 100 mL and (ii) improvement in morning trough FEV1 of less than 100 mL, less than 60 mL or less than 40 mL.
COPD symptoms were assessed using Evaluating Respiratory Symptoms (E-RS; EXACT-Respiratory Symptoms, The minimal clinically important difference (MCID) of the E-RS is a total score of −2 units. User Manual (Version 3.0), October 2014) and Transitional Dyspnea Index (TDI; Mahler et al, The MCID of the transition dyspnea index is a total score of one unit. COPD 2005, 2:99-103.) and QoL was assessed using the St. George's Respiratory Questionnaire (SGRQ; Jones, St. George's Respiratory Questionnaire: The MCID of the SGRQ is a total score of −4 units. COPD 2005, 2:75-79.).

[2] = system: patients aged 40-80 years with moderate to severe COPD; assay: Clinical studies, ensifentrine vs placebo: moderate/severe COPD exacerbations; type: in vivo; settings: nominally statistically significant
Method: as §1, §2
COPD exacerbations were defined as worsening of 2 or more major symptoms (dyspnea, sputum volume, and sputum purulence) or worsening of any 1 major symptom together with any 1 of the following minor symptoms: sore throat, colds, fever without other cause, and increased cough or wheeze for at least 2 consecutive days. COPD exacerbations were considered to be of moderate severity if treatment with systemic corticosteroids and/or antibiotics was required and were considered to be severe if hospitalization was required.

[3] = average FEV1 AUC0-12h <100 mL at Week 12, Week 6
[4] = average FEV1 AUC0-12h <100 mL at Week 12, Week 12
[5] = average FEV1 AUC0-12h <100 mL at Week 12, Week 24
[6] = morning trough FEV1 <60 mL at Week 6, Week 6
[7] = morning trough FEV1 <60 mL at Week 12, Week 12
[8] = morning trough FEV1 <60 mL at Week 24, Week 24
[9] = morning trough FEV1 <100 mL at Week 6, Week 6
[10] = morning trough FEV1 <100 mL at Week 12, Week 12
[11] = morning trough FEV1 <100 mL at Week 24, Week 24

## COc1cc2c(cc1OC)-c1c/c(=N\c3c(C)cc(C)cc3C)n(CCNC(N)=O)c(=O)n1CC2 [Ensifentrine, N-(2-{(2E)-9,10-dimethoxy-4-oxo-2-[(2,4,6-trimethylphenyl)imino]-6,7-dihydro-2H-pyrimido[6,1-a]isoquinolin-3(4H)-yl}ethyl)urea]
[1]; FEV1 AUC0-12h <100 mL or morning trough FEV1 <100, <60 or <40 mL, overall conclusion
  subjects achieving symptom MCID: approximately 70%
[1]; [3]
  Ensifentrine vs. Placebo Odds Ratio, E-RS (−2 Unit) or TDI (+1 Unit) Responders: 1.42
  Odds in favor of a response, E-RS (−2 Unit) or TDI (+1 Unit) Responders: 1.69
[1]; [4]
  Ensifentrine vs. Placebo Odds Ratio, E-RS (−2 Unit) or TDI (+1 Unit) Responders: 1.63
  Odds in favor of a response, E-RS (−2 Unit) or TDI (+1 Unit) Responders: 2.69
[1]; [5]
  Ensifentrine vs. Placebo Odds Ratio, E-RS (−2 Unit) or TDI (+1 Unit) Responders: 1.38
  Odds in favor of a response, E-RS (−2 Unit) or TDI (+1 Unit) Responders: 2.91
[1]; average FEV1 AUC0-12h <100 mL at Week 12, responders at Week 6
  % E-RS (−2 Unit) or TDI (+1 Unit) Responders: 66.3%
[1]; average FEV1 AUC0-12h <100 mL at Week 12, responders at Week 12
  % E-RS (−2 Unit) or TDI (+1 Unit) Responders: 71.2%
[1]; average FEV1 AUC0-12h <100 mL at Week 12, responders at Week 24
  % E-RS (−2 Unit) or TDI (+1 Unit) Responders: 72.7%
[1]; Week 6
  % responders, E-RS (−2 Units) or TDI (+1 Unit) Responders: 67.1%
  Ensifentrine v placebo Odds Ratio, E-RS (−2 Units) or TDI (+1 Unit) Responders: 1.468
  Odds in favour of response, E-RS (−2 Units) or TDI (+1 Unit) Responders: 1.453
[1]; Week 12
  % responders, E-RS (−2 Units) or TDI (+1 Unit) Responders: 70.4%
  Ensifentrine v placebo Odds Ratio, E-RS (−2 Units) or TDI (+1 Unit) Responders: 1.433
  Odds in favour of response, E-RS (−2 Units) or TDI (+1 Unit) Responders: 2.338
[1]; Week 24
  % responders, E-RS (−2 Units) or TDI (+1 Unit) Responders: 73.0%
  Ensifentrine v placebo Odds Ratio, E-RS (−2 Units) or TDI (+1 Unit) Responders: 1.370
  Odds in favour of response, E-RS (−2 Units) or TDI (+1 Unit) Responders: 3.238
[1]; increase in average FEV1 AUC0-12h less than 100 mL at Week 12
  proportion of patients with a clinically important improvement in symptoms: at least ⅔
[1]; increase in morning trough FEV1 less than 100 mL at Week 12
  proportion of patients with a clinically important improvement in symptoms: at least ⅔
[1]; [6]
  Ensifentrine vs. Placebo Odds Ratio, TDI (+1 Unit) or E-RS (−2 Unit) Responders: 1.42
  Odds in favor of a response, TDI (+1 Unit) or E-RS (−2 Unit) Responders: 1.35
[1]; morning trough FEV1 <60 mL at Week 6, responders at Week 6
  % TDI (+1 Unit) or E-RS (−2 Unit) Responders: 65.3%
[1]; [7]
  Ensifentrine vs. Placebo Odds Ratio, TDI (+1 Unit) or E-RS (−2 Unit) Responders: 1.59
  Odds in favor of a response, TDI (+1 Unit) or E-RS (−2 Unit) Responders: 2.83
[1]; morning trough FEV1 <60 mL at Week 12, responders at Week 12
  % TDI (+1 Unit) or E-RS (−2 Unit) Responders: 71.3%
[1]; [8]
  Ensifentrine vs. Placebo Odds Ratio, TDI (+1 Unit) or E-RS (−2 Unit) Responders: 1.36
  Odds in favor of a response, TDI (+1 Unit) or E-RS (−2 Unit) Responders: 2.74
[1]; morning trough FEV1 <60 mL at Week 24, responders at Week 24
  % TDI (+1 Unit) or E-RS (−2 Unit) Responders: 71.7%
[1]; [9]
  Ensifentrine vs. Placebo Odds Ratio, E-RS (−2 Unit) or TDI (+1 Unit) Responders: 1.43
  Odds in favor of a response, E-RS (−2 Unit) or TDI (+1 Unit) Responders: 1.47
[1]; morning trough FEV1 <100 mL at Week 6, responders at Week 6
  % E-RS (−2 Unit) or TDI (+1 Unit) Responders: 66.1%
[1]; [10]
  Ensifentrine vs. Placebo Odds Ratio, E-RS (−2 Unit) or TDI (+1 Unit) Responders: 1.73
  Odds in favor of a response, E-RS (−2 Unit) or TDI (+1 Unit) Responders: 2.96
[1]; morning trough FEV1 <100 mL at Week 12, responders at Week 12
  % E-RS (−2 Unit) or TDI (+1 Unit) Responders: 71.9%
[1]; [11]
  Ensifentrine vs. Placebo Odds Ratio, E-RS (−2 Unit) or TDI (+1 Unit) Responders: 1.42
  Odds in favor of a response, E-RS (−2 Unit) or TDI (+1 Unit) Responders: 2.75
[1]; morning trough FEV1 <100 mL at Week 24, responders at Week 24
  % E-RS (−2 Unit) or TDI (+1 Unit) Responders: 72.0%
[2]; patients with improvement in average FEV1 AUC0-12h less than 100 mL
  reduction in moderate/severe exacerbation rate and risk (time to first event) vs placebo: 37%
[2]; patients with improvement in morning trough FEV1 less than 100 mL
  reduction in moderate/severe exacerbation rate and risk (time to first event) vs placebo: approximately 40%
